The test system of one experiment is MRL-(Fas)lpr mice. Put plainly: Experimental lupus nephritis, late onset of treatment week 15 to 19. Format: in vivo. As to conditions: late onset week 15-19. As for the experimental part:
To further assess the potency of Cat-S inhibition to control advanced lupus nephritis we performed identical experiments with the highest dose of RO5459072 and MMF, which were not initiated before week 15 of age and continued for only 4 weeks and terminated again at week 19.
Four-week-old female MRL-(Fas)lpr mice were purchased from Harlan Winkelmann (Borchen, Germany) and kept under pathogen-free conditions in a 12 hour light and dark cycle with free access to food and water. All animal experiments were performed in accordance with the European protection laws of animal welfare, and with approval by the local government authorities Regierung von Oberbayern (reference number: 55.2.1-54-2532.2-11-12). At 11 or 15 weeks of age only mice with proteinuria (Albustix, Bayer AG, Leverkusen, Germany) were randomized into five different groups (n = 10) receiving different medicated diets: Three groups were fed with chow mixed with either 3, 10 or 30 mg/kg/day RO5459072, another group’s chow was mixed with 100 mg/kg/day mycophenolate mofetil (MMF), and one group received a standard diet (vehicle). The dose of MMF was chosen according to several studies reporting strong efficacy on SLE and lupus nephritis in MRL-(Fas)lpr mice[24]–[26]. […] At the age of 19 weeks all mice were sacrificed by cervical dislocation. Blood and urine samples were collected at different time points as indicated. In other experiments 7 week old female MRL-(Fas)lpr mice were randomized into three groups (n = 3) to receive a single intravenous injection of 10 µg sterile recombinant Cat-S and one group receiving vehicle (100 µl sterile PBS). One of the Cat-S groups was pretreated with 30 mg/kg/day RO5459072 starting one week prior to Cat-S injection; another group was pretreated with a total of four daily intra-peritoneal injections of the PAR-2 inhibitor GB83 (10 mg/kg).
Kidney tissue samples were collected from all mice and fixed overnight in 4% buffered formalin. Subsequently the fixed tissue samples were embedded in paraffin and cut into 4 µm thick serial sections. Kidney paraffin sections were stained with periodic acid-Schiff (PAS) reaction using standardized protocols as described. Scoring of lupus nephritis activity and chronicity indices was performed according to human lupus nephritis, [43]. Methenamine silver staining was performed on paraffin embedded kidney sections and semiquantitatively scored form 0–3 by a blinded observer. For immunostaining the following primary antibodies were used: anti-mouse CD3 (Abcam, Cambridge, UK), complement C3c (Biobyt Ltd, Cambridge, UK), CD31 (Dianova GmbH, Hamburg, Germany), WT1 (Santa Cruz Biotechnology, Dallas, Texas) and nephrin (Acris Antibodies, San Diego, CA). The immunostaining for C3c and CD31 were analyzed using the ImageJ software by measuring positively stained area and dividing it by the total area of the glomerulus and reported as percentage of +ve area. Sections stained for WT1/nephrin and CD3 were evaluated by counting positive cells per glomerulus. All the morphometric analysis were carried out in a blinded fashion.
Urinary albumin/creatinine ratios were determined using the Mouse Albumin ELISA Quantitation set (Bethyl Laboratories, Montgomery, TX) and the Creatinine FS kit (DiaSys Diagnostic Systems, Holzheim, Germany)[44]. BUN levels were determined in plasma samples using a Urea FS kit (DiaSys Diagnostic Systems). Mouse IgM, IgG and its isotypes IgG1, IgG2a and IgG2b plasma levels were measured using ELISA Sets (Bethyl Laboratories) at a plasma dilution of 1:1,000 to 1:100,000. Double-stranded DNA IgG and IgM antibodies were quantified as described. Briefly, 96 well Nunc-Immuno plates (Thermo Fisher Scientific, Roskilde, Denmark) were coated with poly-L-lysine (1:1 diluted with PBS) and incubated for two hours. After washing the plates, the plates were coated with 1 µg/ml mouse tail dsDNA sparing the wells for standards, which were coated with anti-mIgG and anti-mIgM (Bethyl Laboratories). […]

In experiment [1] the target is T1, Cat-S in human purified B-cells (Homo sapiens, UniProt P25774).
T1 construct: Human B-cells were isolated from whole blood; endogenous in cells; host or cells: primary human CD19+ B cells from whole blood of healthy volunteers
T1 sequence (P25774 115-331): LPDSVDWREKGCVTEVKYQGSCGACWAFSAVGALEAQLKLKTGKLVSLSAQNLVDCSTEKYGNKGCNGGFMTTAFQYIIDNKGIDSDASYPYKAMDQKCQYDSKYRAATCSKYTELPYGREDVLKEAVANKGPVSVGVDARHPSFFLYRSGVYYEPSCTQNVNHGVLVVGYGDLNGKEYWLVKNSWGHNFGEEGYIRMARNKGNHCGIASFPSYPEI
Put plainly: lip10 (p10) accumulation assay in human purified B-cells (p10 ELISA). It counts as cell-based. How it is done:
Human B-cells were isolated from whole blood using the Whole Blood CD19 Microbeads (Cat#130-090-880, Milteny) with the Whole Blood Column Kit (130-093-545, Milteny) according to the instruction leaflet. Isolated B-cells were adjusted to a cell density of 1 × 10^6 cells/ml in RPMI medium containing 10% FCS and 0.05 mM β-Mercaptoethanol (media and supplements are from Gibco). For each condition 100 µl of cell suspension was transferred into one well of a 96 well cell culture plate, respectively. For detection of p10, cells were treated with different concentrations of RO5459072 for 16 h in a cell culture incubator (37 °C; 5% CO2). Afterwards cells were lysed by adding 100 µl 2x NP-40 lysis buffer (20 mM Tris pH 8.0; 137 mM NaCl; 10% glycerol; 1% NP-40; 2 mM EDTA) containing HALT Protease inhibitor (Cat#78429, Pierce) for 30 min on ice. Before detection of accumulated p10-MHC-II complexes, interfering Ii-MHC-II associates were removed from the cell lysates. […] The CD74-18/3 antibody detects uncleaved invariant chain MHC-II complexes only. Afterwards p10-MHC-II complexes were analyzed by ELISA. For this purpose black Maxisorp plates from NUNC have been coated o/n with PIN.1 (5 µg/ml) from abcam (Cat#ab22603). The next day plates were blocked with blocking buffer for 1 h at 37 °C. Lysates containing 25,000 B-cells per condition were transferred to each well of the ELISA plate respectively and incubated together with the secondary antibody CD74-3/5-Biotin (15 ng/ml) o/n at 4 °C on a shaker. For signal amplification samples were incubated for 30 min with High Sensitive Streptavidin-HRP, 50 ng/ml (Cat#21134, Pierce). The amount of p10 was detected after 30 min of incubation with the QuantaBluTM Fluorogenic Substrate (Cat#15162, Pierce) at 325 nm excitation and 420 nm emission. In between each procedure of the ELISA assay the plates were washed twice with PBS−/− containing 0.05% TWEEN-20.
Supplementary figure 1. Biochemical and pharmacological profile of R05459072. (A)
Upregulation of invariant chain p10 levels in human B-cells was estimated by p10 ELISA, upon
treatment with increasing concentration of RO5459072.
upregulation in B-cells derived from 6 healthy volunteers. […]
In general terms: In an ELISA, binding on a coated surface is turned into a signal by an enzyme label.

In general, EC50 refers to the concentration that produces a half-maximal response.

Where two headings read alike, the source gives them in different places.

For the compound `Cn1cc(-c2ccc(S(=O)(=O)[C@@H]3C[C@@H](C(=O)NC4(C#N)CC4)N(C(=O)C4(C(F)(F)F)CC4)C3)c(C(F)(F)F)c2)cn1` [RO5459072], in the experiment with MRL-(Fas)lpr mice, the “lupus nephritis disease activity index” value is listed as “significantly reduced”. The “lupus nephritis disease chronicity index” value in the experiment on MRL-(Fas)lpr mice is on record as “failed to significantly suppress”. For the same compound, the “proteinuria and BUN at week 19 compared to control mice” value in the experiment with MRL-(Fas)lpr mice is recorded as “significantly reduced”. In addition, the “plasma IgG and its isotypes and anti-dsDNA IgG” value in the experiment on MRL-(Fas)lpr mice (highest dose of RO5459072, MMF) is given as “significantly suppressed”. For the same compound, the EC50 in experiment [1] (average of 6 healthy volunteers, 16 h treatment, read-out: EC50 of lip10 (p10) induction in human B-cells, average) amounted to 0.0158 µM; in experiment [1] (donor D1, read-out: EC50 of p10 upregulation in human B-cells, donor D1), 0.0264 µM; in experiment [1] (donor D2, read-out: EC50 of p10 upregulation in human B-cells, donor D2) it was 0.0158 µM; in experiment [1] (donor D3, read-out: EC50 of p10 upregulation in human B-cells, donor D3) it was 0.0191 µM; in experiment [1] (donor D4, read-out: EC50 of p10 upregulation in human B-cells, donor D4), 0.0094 µM; in experiment [1] (donor D5, read-out: EC50 of p10 upregulation in human B-cells, donor D5), 0.0126 µM. Moreover, the EC50 in experiment [1] (donor D6, read-out: EC50 of p10 upregulation in human B-cells, donor D6) was 0.0115 µM.

The values are drawn from article PMC5459853, “Cathepsin S inhibition combines control of systemic and peripheral pathomechanisms of autoimmune tissue injury” (Scientific Reports, 2017).
